pEC50, pKi: −log10 of the molar value. Read-outs that look alike come from different tables or passages of the source.
What was measured:
human CB2 receptor = target: T1, human CB2 receptor (Homo sapiens, UniProt P34972); experiment: GTPγS binding experiment via human CB2 receptor (membrane fraction of CHO-K1 cells); assay type: biochemical; conditions: for Emax: read-out: Emax value (maximum effect of CP55940 as 100%)
T1 construct: expressed in transfected cells
Experimental: A test was carried out according to the method of Hillard et al. [The Journal of Pharmacology and Experimental Therapeutics, vol. 289, p. 1427 (1999)]. As for a membrane specimen, a membrane fraction was prepared from CHO-K1 cells in which a human CB2 receptor [Nature, vol. 365, pp. 61-65 (1993)] was stably expressed and used. The membrane specimen (final concentration: 40 μg of protein/mL) was incubated together with a test compound and [^35S]GTPγS (manufactured by PerkinElmer) (final concentration: 0.05 nmol/L) in an assay buffer (50 mmol/L Tris-HCl buffer (pH 7.4), 100 mmol/L NaCl, 1 mmol/L EDTA, 3 mmol/L MgCl2, and 0.1% bovine serum albumin) containing 20 μmol/L guanosine 5′-diphosphate (GDP) at 30° C. for 1 hour, and the resulting mixture was filtered using a glass filter GF/B (manufactured by Whatman). After the glass filter was washed with the assay buffer, the radioactivity on the glass filter was measured using a liquid scintillation counter (TRI-CARB 2700TR, manufactured by Packard). The binding amount in the presence of 10 μmol/L GTPγS was considered to be a non-specific binding amount, and a difference between the total binding amount and the non-specific binding amount was considered to be a specific binding amount. The ratio of increase in the specific binding amount in the presence of the test compound to the specific binding amount in the absence of the test compound was considered to be an agonistic activity of the test compound. The concentration of the test compound that produces 50% of the maximum effect (EC50 value) was calculated by performing a nonlinear regression analysis using the concentration-response data. The percentage of the maximum effect of the test compound (Emax value) was calculated by considering the maximum effect of CP55940 (manufactured by Tocris) measured at the same time as 100%.

CB2 receptor = target: T2, CB2 receptor (Rattus norvegicus, UniProt Q9QZN9); experiment: Cannabinoid CB2 receptor-binding activity ([3H]CP55940 binding experiment), rat spleen membrane specimen
T2 construct: from tissue; host or cells: rat spleen membrane specimen
T2 sequence (Q9QZN9 1-360): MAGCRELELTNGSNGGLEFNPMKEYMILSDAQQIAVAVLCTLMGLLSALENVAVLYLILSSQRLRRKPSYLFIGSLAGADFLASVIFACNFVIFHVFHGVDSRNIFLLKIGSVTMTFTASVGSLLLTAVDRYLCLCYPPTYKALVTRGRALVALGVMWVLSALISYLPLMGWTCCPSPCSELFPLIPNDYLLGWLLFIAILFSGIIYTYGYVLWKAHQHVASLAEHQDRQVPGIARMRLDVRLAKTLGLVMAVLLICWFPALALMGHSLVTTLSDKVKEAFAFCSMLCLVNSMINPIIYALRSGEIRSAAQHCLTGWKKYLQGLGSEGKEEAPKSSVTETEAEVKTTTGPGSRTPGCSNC
Experimental: A test was carried out according to the method of Hillard et al. [The Journal of Pharmacology and Experimental Therapeutics, vol. 289, p. 1427 (1999)]. A rat forebrain membrane specimen and a rat spleen membrane specimen were prepared and used in a binding experiment for a CB1 receptor and a binding experiment for a CB2 receptor, respectively. The membrane specimen (forebrain: final concentration of 0.5 mg of protein/mL, spleen: final concentration of 2 mg of protein/mL) was incubated together with a test compound and [^3H]CP55940 (manufactured by PerkinElmer) ((−)-cis-3-[2-hydroxy-[3,5-^3H]-4-(1,1-dimethylheptyl)phenyl]-trans-4-(3-hydroxypropyl)cyclohexanol)) (final concentration: 0.5 nmol/L) in an assay buffer (50 mmol/L Tris-HCl buffer (pH 7.4), 1 mmol/L EDTA and 3 mmol/L MgCl2) containing 0.1% bovine serum albumin at 25° C. for 1 hour, and the resulting mixture was filtered using a glass filter GF/C (manufactured by Whatman) treated with 1% polyethyleneimine. After the glass filter was washed with the assay buffer containing 0.2% bovine serum albumin, the radioactivity on the glass filter was measured using a liquid scintillation counter (TRI-CARB 2700TR, manufactured by Packard). The binding amount in the presence of 10 μmol/L […] (manufactured by Tocris) ((R)-(+)-[2,3-dihydro-5-methyl-3-(4-morpholinylmethyl)pyrrolo[1,2,3-de]-1,4-benzoxazin-6-yl]-1-naphthalenylmethanone) was considered to be a non-specific binding amount, and a difference between the total binding amount and the non-specific binding amount was considered to be a specific binding amount. The 50% inhibitory concentration (IC50 value) of the test compound against the specific binding was obtained, and the Ki value of the test substance was calculated from the 50% inhibitory concentration and the Kd value of the [^3H]CP55940 binding.

[1] = tested on: rats with chronic constriction nerve injury; experiment: Analgesic effect in rats with chronic constriction nerve injury (von Frey filament); assay type: in vivo, rat; conditions: oral, dose of 50 mg/kg or less, one hour after administration, von Frey filaments
Excerpt: Rats with chronic constriction nerve injury were produced by partially modifying the method of Mosconi and Kruger et al. (Pain, vol. 64, pp. 37-57 (1996))
Male Crl:CD(SD) rats were used for the experiments. Under pentobarbital anesthesia, the sciatic nerve of the left hind limb of the rat was exfoliated, and the exfoliated region was wrapped with a polyethylene tube (trade name: Intramedic, size: PE-60, manufactured by Becton Dickinson and Company) of 2 mm in length. On days 14 to 21 after the surgery, the rats were placed in an acrylic connected cage with a wire mesh floor (900 mm (length)×210 mm (depth)×140 mm (height)) consisting of 4 cages connected in a row and allowed to acclimate to the environment for at least 20 minutes, and then, the pain was evaluated.
The von Frey filament (trade name: touch test sensory evaluator, Model number: model 58011, manufactured by Muromachi Kikai) was used to evaluate pain, and the results were calculated as a pain threshold. That is, by using a von Frey filament of different stimulus intensity, stimulation was given to the plantar surface of the injured side of rats with chronic constriction nerve injury, and the stimulus intensity to cause paw withdrawal response was obtained. Then, the 50% pain threshold (Paw withdrawal threshold) (g) was calculated by the up down method of Dixon [Annual Review of Pharmacology and Toxicology, vol. 20, pp. 441-462 (1980)].
In the evaluation of the test compound, rats with 50% pain threshold of less than 4 g were used, and the test compound was dissolved in a 0.5% aqueous methyl cellulose solution and orally administered at a dose of 5 mL/kg. One hour after the administration, the pain threshold was measured using von Frey filaments.

T1 sequence (P34972 whole entry): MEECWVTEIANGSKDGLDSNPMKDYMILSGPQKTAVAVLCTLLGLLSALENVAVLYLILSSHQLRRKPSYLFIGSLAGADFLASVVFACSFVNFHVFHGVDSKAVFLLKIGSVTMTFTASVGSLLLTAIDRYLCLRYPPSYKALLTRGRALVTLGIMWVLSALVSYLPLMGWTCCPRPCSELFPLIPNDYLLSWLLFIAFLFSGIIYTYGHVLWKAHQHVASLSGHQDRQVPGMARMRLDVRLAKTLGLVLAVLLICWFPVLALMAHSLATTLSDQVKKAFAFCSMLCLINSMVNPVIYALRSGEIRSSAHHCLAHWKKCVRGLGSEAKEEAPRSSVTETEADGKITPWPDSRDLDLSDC

SMILES | pEC50 (human CB2 receptor) | Emax (human CB2 receptor) [%] | pKi (CB2 receptor) | 50% pain threshold (paw withdrawal threshold) [1] | pKi (CB2 receptor; rat spleen membrane, [3H]CP55940 0.5 nmol/L, 25° C., 1 hour, read-out: Ki value against the CB2 receptor)
CCN(CC)C(=O)c1cc(-c2cn(CC3CCOCC3)c(C(C)(C)C)n2)ccc1Cl [Compound 65, 2-Chloro-5-(2-tert-butyl-1-(tetrahydropyran-4-ylmethyl)-1H-imidazol-4-yl)-N,N-diethylbenzamide] | > 6.00 | > 30 | > 6.00 | significantly increased the pain threshold | –
CCN(CC)C(=O)c1cc(-c2cn(CC3CCOCC3)c(C(C)(C)C)n2)ccc1F.Cl [Compound 66, 5-(2-tert-Butyl-1-(tetrahydropyran-4-ylmethyl)-1H-imidazol-4-yl)-N,N-diethyl-2-fluorobenzamide hydrochloride] | > 6.00 | > 30 | > 6.00 | significantly increased the pain threshold | –
CC(C)(C)c1nc(-c2cccc([N+](=O)[O-])c2)cn1CC1CCOCC1 [Compound 70, 2-tert-Butyl-4-(3-nitrophenyl)-1-(tetrahydropyran-4-ylmethyl)-1H-imidazole] | > 6.00 | > 30 | > 6.00 | significantly increased the pain threshold | –
CCN(CC)C(=O)c1cccc(-c2cn(CC3CCOCC3)c(C(C)(C)C)n2)c1.Cl [Compound 76, 3-(2-tert-Butyl-1-(tetrahydropyran-4-ylmethyl)-1H-imidazol-4-yl)-N,N-diethylbenzamide hydrochloride] | > 6.00 | > 30 | > 6.00 | significantly increased the pain threshold | –
CCN(C)C(=O)c1cccc(-c2cn(CC3CCOCC3)c(C(C)(C)C)n2)c1.Cl [Compound 83, 3-(2-tert-Butyl-1-(tetrahydropyran-4-ylmethyl)-1H-imidazol-4-yl)-N-ethyl-N-methylbenzamide hydrochloride] | > 6.00 | > 30 | > 6.00 | significantly increased the pain threshold | –
CCN(CC)C(=O)c1cncc(-c2cn(CC3CCOCC3)c(C(C)(C)C)n2)c1 [Compound 85, 5-(2-tert-Butyl-1-(tetrahydropyran-4-ylmethyl)-1H-imidazol-4-yl)-N,N-diethylnicotinamide] | > 6.00 | > 30 | > 6.00 | significantly increased the pain threshold | –
CCN(C)C(=O)c1cc(-c2cn(CC3CCOCC3)c(C(C)(C)C)n2)cs1 [Compound 102, 4-[2-tert-Butyl-1-(tetrahydropyran-4-ylmethyl)-1H-imidazol-4-yl]-N-ethyl-N-methylthiophene-2-carboxamide] | > 6.00 | > 30 | > 6.00 | significantly increased the pain threshold | –
CCN(CC)C(=O)c1cncc(-c2cn(CC3CCOCC3)c(C(C)(C)C)n2)n1 [Compound 143, 6-[2-tert-Butyl-1-(tetrahydropyran-4-ylmethyl)-1H-imidazol-4-yl]-N,N-diethylpyrazine-2-carboxamide] | > 6.00 | > 30 | – | significantly increased the pain threshold | > 6.00
CCCN(C)C(=O)c1cncc(-c2cn(CC3CCOCC3)c(C(C)(C)C)n2)n1 [Compound 144, 6-[2-tert-Butyl-1-(tetrahydropyran-4-ylmethyl)-1H-imidazol-4-yl]-N-methyl-N-propylpyrazine-2-carboxamide] | > 6.00 | > 30 | > 6.00 | significantly increased the pain threshold | –
CCN(C)C(=O)c1cncc(-c2cn(CC3CCOCC3)c(C(C)(C)C)n2)n1 [Compound 146, 6-[2-tert-Butyl-1-(tetrahydropyran-4-ylmethyl)-1H-imidazol-4-yl]-N-ethyl-N-methylpyrazine-2-carboxamide] | > 6.00 | > 30 | > 6.00 | significantly increased the pain threshold | –
